Structures can show the parent of a compound that is named as a salt. Where two headings read alike, the source gives them in different places.

For one experiment, the system named is pylorous ligated rats. As to the kind of experiment: Antisecretory activity in the pylorous ligated rat model. In kind it is in vivo, male Sprague-Dawley rats. The following applies: for inhibition in vivo at 50 mg/kg / inhibition in vivo at 12.5 mg/kg / inhibition in vivo at 25 mg/kg / inhibition in vivo at 100 mg/kg: Rattus norvegicus, 4 h. How it is done:
To determine the antisecretory activity of the present compounds, the compounds were tested for such activity in pylorous ligated rats. In this test, male Sprague-Dawley rats weighing 170-190 g. were fasted for 24 hours. Water was allowed ad libitum. All groups were comprised of six rats. […] Water was withheld after drug administration. Ligation of the pyrloric sphincter was performed under ether anesthesia, and four hours after ligation the animals were sacrificed with CO2. The stomach was dissected out and the contents were expelled into a graduated centrifuge tube. The samples were centrifuged and the volume, less debris, was measured. Sample aliquots were titrated with 0.05 N NaOH to determine acid concentration. Pepsin activity was determined on an auto analyzer using hemoglobin as the substrate by the method of Anson. Group means for volume, acid and pepsin concentrations, and pepsin outputs were compared for statistically significant differences from control means by Student's t-test.

Experiment [1] relates to pentagastrin stimulated fistula dog. As to the kind of experiment: Antisecretory activity in the pentagastrin stimulated fistula dog. In kind it is in vivo, female beagle dogs. As to conditions: pentagastrin 10 μg/kg s.c., 2 hours. How it is done: In addition to the test described in Example XXXVI, some of the present compounds were tested in dogs.
In this test, female beagle dogs weighing 5.5-7.5 kg. were surgically provided with gastric fistulas at the ventral wall of the stomach near the greater curvature and just proximal to the antrum. The animals were allowed to recover for three to four weeks before handling and training were begun, and experiments were started six to eight weeks after surgery. The individually housed dogs were fasted for 20-24 hours before use. Water was allowed ad lib. Treatment selection was determined by a randomized schedule which included control groups given vehicle (0.5% Methocel® solution) only. During the test period each dog was secured in a standing position with one collar around the neck and another around the lower abdomen. Before drug administration, the cannula plug of the gastric fistula was removed and the pH of the gastric juice was checked. Animals with acidic gastric juice (pH 4.0 or less) were replaced with alternate dogs. Then the drug was administered intragastrically […] through a special gastric cannula instillation plug, 30 minutes prior to subcutaneous administration of a gastric stimulant (pentagastrin, 10 μg/kg).
For each dog, collection of gastric juice was begun immediately after administration of the gastric stimulant and continued for two hours. The volumes of collected gastric juices were measured. The acid concentration and pepsin activity were determined for all samples by automated procedures. For the dog data, as recorded in Table 2, below, group means for volume (ml), acid concentration (acidity, mEq/l), pepsin concentration (mg/ml), acid output (mEq/2 hr), and pepsin output (mg/2 hr) were compared with the respective control means using Student's t-test. The results were also expressed as percent inhibition of the respective individual mean control values.
Group means for volume, acid and pepsin concentrations, acid and pepsin outputs were compared for statistically significant differences from control means by Student's t-test.

Where [2] appears, read: oral dose 50 mg/kg, negative sign means stimulated, read-out: Percent inhibition of pepsin.
The mark [3] stands for this setting: oral dose 50 mg/kg, negative sign means stimulated, read-out: Percent inhibition of pepsin output.
The mark [4] stands for this setting: oral dose 50 mg/kg, read-out: Percent inhibition of acid output.
The mark [5] stands for this setting: oral dose 50 mg/kg, read-out: Percent inhibition of acidity.
Setting [6] is: oral dose 50 mg/kg, read-out: Percent inhibition of volume.
[7] abbreviates: oral dose 50 mg/kg, negative sign means stimulated.

Take `CCCCCC(C)C(C)c1cc(O)c(C2CCNCC2)c(O)c1` (centres unmarked) [Example XVI, 2-(4-Piperidino)-5-(1,2-dimethylheptyl) resorcinol hydrochloride]: the inhibition in vivo at 50 mg/kg in the experiment with pylorous ligated rats (setting [2]) is 45.1%. Besides, the inhibition in vivo at 50 mg/kg in the experiment with pylorous ligated rats (setting [3]) stood at 40.3%. In the experiment on pylorous ligated rats (setting [4]), the inhibition in vivo at 50 mg/kg is 46.6%. In addition, the inhibition in vivo at 50 mg/kg in the experiment with pylorous ligated rats (setting [5]) was found to be 50.7%. Besides, the inhibition in vivo at 50 mg/kg in the experiment with pylorous ligated rats (setting [6]) was -8.6%. In experiment [1] (dose 10 mg/kg), the “% Inhibition of acid output” value is 20.3%, the “% Inhibition of acidity” value is reported as 20.9%, the “% Inhibition of pepsin” value was determined as 39.7% and the “% Inhibition of pepsin output” value came to 39.1%. For the same compound, the “% Inhibition of volume” value in experiment [1] (dose 10 mg/kg) is given as -0.2%.
With `CCCCCc1cc(O)c(C2=CCN(CCc3ccccc3)CC2)c(O)c1` [Example XIX, 2-(N-Phenethyl-1,2,3,6-tetrahydro-4-pyridyl)-5-pentyl resorcinol hydrochloride], the inhibition in vivo at 50 mg/kg with pylorous ligated rats (setting [2]) is 6.9%; in the experiment on pylorous ligated rats (setting [3]), 31.7%; in the experiment with pylorous ligated rats (setting [4]), 27.3%; in the experiment on pylorous ligated rats (setting [5]), 4.2%; in the experiment with pylorous ligated rats (setting [6]), 25.5%.
`CCCCCC(C)C(C)c1cc(O)c(C2=CCN(C)CC2)c(OC)c1` (centres unmarked) [Example XXVI, 2-(N-Methyl-1,2,3,6-tetrahydro-4-pyridyl)-3-methoxy-5-(1,2-dimethylheptyl)phenol hydrochloride]: the inhibition in vivo at 50 mg/kg is 12.6% in the experiment on pylorous ligated rats (setting [2]); 8.6% with pylorous ligated rats (setting [3]); 53.7% with pylorous ligated rats (setting [4]); 53.1% with pylorous ligated rats (setting [5]); -0.3% with pylorous ligated rats (setting [6]).
As for `CC(C)c1cc(O)c(C2=CCN(C(C)C)CC2)c(O)c1` [XIII, 2-(N-Isopropyl-1,2,3,6-tetrahydro-4-pyridyl)-5-isopropyl resorcinol hydrochloride], the inhibition in vivo at 50 mg/kg with pylorous ligated rats (setting [2]) came out at 7.1%; in the experiment with pylorous ligated rats (setting [3]), 36.4%; with pylorous ligated rats (setting [4]), 37.9%; with pylorous ligated rats (setting [5]), 9.7%; in the experiment on pylorous ligated rats (setting [6]), 32%.
For `CCCCCC(C)C(C)c1cc(O)c(C2=CCN(Cc3ccccc3)CC2)c(O)c1.Cl` (centres unmarked) [Example XIV, 2-(N-Benzyl-1,2,3,6-tetrahydro-4-pyridyl)-5-(1,2-dimethylheptyl) resorcinol hydrochloride], the inhibition in vivo at 12.5 mg/kg in the experiment with pylorous ligated rats (oral dose 12.5 mg/kg, read-out: Percent inhibition of acid output) was -17.3%; with pylorous ligated rats (oral dose 12.5 mg/kg, read-out: Percent inhibition of acidity), -0.5%; in the experiment with pylorous ligated rats (oral dose 12.5 mg/kg, read-out: Percent inhibition of volume) it was -5.9%. Moreover, the inhibition in vivo at 25 mg/kg worked out at 12.5% in the experiment on pylorous ligated rats (oral dose 25 mg/kg, read-out: Percent inhibition of acid output); 9.2% in the experiment with pylorous ligated rats (oral dose 25 mg/kg, read-out: Percent inhibition of acidity); 4.9% in the experiment with pylorous ligated rats (oral dose 25 mg/kg, read-out: Percent inhibition of volume). In addition, the inhibition in vivo at 50 mg/kg worked out at 12.7% in the experiment on pylorous ligated rats (setting [2]); 52.4% in the experiment on pylorous ligated rats (setting [3]); 57.6% in the experiment on pylorous ligated rats (setting [4]); 24.7% in the experiment on pylorous ligated rats (setting [5]); 48.9% with pylorous ligated rats (setting [6]). The inhibition in vivo at 100 mg/kg was found to be 79.7% with pylorous ligated rats (oral dose 100 mg/kg, read-out: Percent inhibition of acid output); 31.6% with pylorous ligated rats (oral dose 100 mg/kg, read-out: Percent inhibition of acidity); 72.1% with pylorous ligated rats (oral dose 100 mg/kg, read-out: Percent inhibition of volume). For the same compound, the “% Inhibition of acid output” value in experiment [1] (dose 10 mg/kg) was -10.4%. Further, in experiment [1] (dose 10 mg/kg), the “% Inhibition of acidity” value is 1.2%. The “% Inhibition of pepsin” value in experiment [1] (dose 10 mg/kg) was -10.0%. For the same compound, in experiment [1] (dose 10 mg/kg), the “% Inhibition of pepsin output” value is -23.1%. Further, the “% Inhibition of volume” value in experiment [1] (dose 10 mg/kg) is recorded as -12.3%.
Consider `CCCCCC(C)C(C)c1cc(O)c(C2CCN(C)CC2)c(O)c1` (centres unmarked) [XVII, 2-(N-Methyl-4-piperidino)-5-(1,2-dimethylheptyl) resorcinol hydrochloride], for which the inhibition in vivo at 50 mg/kg came to 40.5% in the experiment with pylorous ligated rats (setting [2]); 40.6% with pylorous ligated rats (setting [3]); 38.5% with pylorous ligated rats (setting [4]); 38.1% in the experiment with pylorous ligated rats (setting [5]); 0.3% in the experiment with pylorous ligated rats (setting [6]).
As to `CCCCCC(C)C(C)c1cc(O)c(C2CCNCC2)c(OC)c1` (centres unmarked) [Example XXX, 2-(4-Piperidino)-3-methoxy-5-(1,2-dimethylheptyl)phenol hydrochloride], the inhibition in vivo at 50 mg/kg is 34.7% with pylorous ligated rats (setting [4]), 39.9% in the experiment on pylorous ligated rats (setting [5]) and -8.9% with pylorous ligated rats (setting [6]).
With “2-(N-Methyl-1,2,3,4-tetrahydro-4-pyridyl)-5-(methyl) resorcinol [IX]”, in the experiment on pylorous ligated rats (oral dose 50 mg/kg), the “Percent inhibition of acid output” value stood at 31.7%, the “Percent inhibition of acidity” value is reported as 12.1% and the “Percent inhibition of volume” value is 21.9%. Moreover, in the experiment with pylorous ligated rats (setting [7]), the “Percent inhibition of pepsin” value is -7.2% and the “Percent inhibition of pepsin output” value is given as 17.0%.
For “2-(1,2,3,4-Tetrahydro-4-pyridyl)-3-methoxy-5-(1,2-dimethylheptyl)phenol hydrochloride [XXVIII]”, the “Percent inhibition of acid output” value came out at 7.5% in the experiment with pylorous ligated rats (oral dose 12.5 mg/kg), 13.1% with pylorous ligated rats (oral dose 25 mg/kg), 68.2% in the experiment on pylorous ligated rats (oral dose 50 mg/kg) and 64.4% in the experiment with pylorous ligated rats (oral dose 100 mg/kg). For the same compound, the “Percent inhibition of acidity” value in the experiment on pylorous ligated rats (oral dose 12.5 mg/kg) is 19.2%; in the experiment on pylorous ligated rats (oral dose 25 mg/kg), 27.2%; in the experiment on pylorous ligated rats (oral dose 50 mg/kg), 67.1%; in the experiment on pylorous ligated rats (oral dose 100 mg/kg) it was 71.7%. Further, the “Percent inhibition of pepsin output” value with pylorous ligated rats (oral dose 12.5 mg/kg) turned out to be 10.9%; in the experiment with pylorous ligated rats (oral dose 25 mg/kg), 0.8%; with pylorous ligated rats (setting [7]), 9.1%; in the experiment on pylorous ligated rats (oral dose 100 mg/kg), 1.8%. Also, the “Percent inhibition of volume” value is on record as -14.5% in the experiment on pylorous ligated rats (oral dose 12.5 mg/kg), -19.5% in the experiment on pylorous ligated rats (oral dose 25 mg/kg), 3.7% in the experiment on pylorous ligated rats (oral dose 50 mg/kg) and -23.1% in the experiment on pylorous ligated rats (oral dose 100 mg/kg). Also, the “Percent inhibition of pepsin” value in the experiment with pylorous ligated rats (oral dose 12.5 mg/kg, negative sign means stimulated) was determined as 22.5%; in the experiment with pylorous ligated rats (oral dose 25 mg/kg, negative sign means stimulated), 17.2%; in the experiment on pylorous ligated rats (setting [7]), 7.5%; with pylorous ligated rats (oral dose 100 mg/kg, negative sign means stimulated), 20.9%. Besides, the entries for the “% Inhibition of acid output” value in experiment [1] (dose 10 mg/kg) and in experiment [1] (dose 20 mg/kg) were 16.5% and 17.9%, respectively. The figures for the “% Inhibition of acidity” value in experiment [1] (dose 10 mg/kg) and in experiment [1] (dose 20 mg/kg) were 7.7% and 26.2%, respectively. The “% Inhibition of pepsin” value is recorded as 29.7% in experiment [1] (dose 10 mg/kg) and 48.0% in experiment [1] (dose 20 mg/kg). The “% Inhibition of pepsin output” value came out at 35.1% in experiment [1] (dose 10 mg/kg) and 41.2% in experiment [1] (dose 20 mg/kg). The “% Inhibition of volume” value in experiment [1] (dose 10 mg/kg) was 9.2%; in experiment [1] (dose 20 mg/kg), -12.6%.
For `CC(C)c1cc(O)c(C2=CCNCC2)c(O)c1` [XII, 2-(1,2,3,6-Tetrahydro-4-pyridyl)-5-isopropyl resorcinol hydrochloride], the inhibition in vivo at 50 mg/kg is -3.9% in the experiment on pylorous ligated rats (setting [2]); 12.8% in the experiment with pylorous ligated rats (setting [3]); 16.6% in the experiment with pylorous ligated rats (setting [4]); 1.4% with pylorous ligated rats (setting [5]); 15.5% in the experiment on pylorous ligated rats (setting [6]).

(Values after US4180669A, “2-(N-phenethyl-4-piperidino)-5-pentyl resorcinol” (Abbott Laboratories, priority 1978, dated 1979).)
